The values that follow come from ChEMBL document CHEMBL2412976, “Structure optimization of 2-benzamidobenzoic acids as PqsD inhibitors for Pseudomonas aeruginosa infections and elucidation of binding mode by SPR, STD NMR, and molecular docking” (J Med Chem, 2013).

Molecules are shown by their SMILES. Residue numbers refer to the chain shown, from its start. Calls of active or inactive are those of the source. The calls are words filed in the database; no cut-off is given here. Where only a bound is given, the exact number is not on record here.

A short description of test [1]: Inhibition of Pseudomonas aeruginosa PqsD using ACoA/beta-ketodecanoic acid as substrate assessed as HHQ formation incubated for 10 mins prior to ACoA/beta-ketodecanoic acid addition measured for 40 mins.
Test [2] relates to Pseudomonas aeruginosa. Description: Inhibition of Pseudomonas aeruginosa PqsD assessed as HHQ formation at 50 uM incubated 30 mins prior to substrate addition.
Test [3] deals with Pseudomonas aeruginosa. Description: Binding affinity to Pseudomonas aeruginosa wild-type PqsD by NMR spectroscopy analysis.
A short description of test [4]: Inhibition of Pseudomonas aeruginosa PqsD using ACoA/beta-ketodecanoic acid as substrate assessed as HHQ formation incubated for 30 mins prior to ACoA addition followed by 10 mins after treated with beta-ketodecanoic acid measured for 40 mins.
The subject of test [5] is Pseudomonas aeruginosa. Kind of test: Binding affinity to Pseudomonas aeruginosa PqsD at 100 uM by surface plasmon resonance analysis in presence of ACoA. A general note: SPR reads the build-up and loss of mass on a sensor chip optically.
A short description of test [6]: Binding affinity to Pseudomonas aeruginosa wild-type PqsD by isothermal titration calorimetry. (In general: Isothermal titration calorimetry measures the heat released or taken up as one component is titrated into another.)
In test [7] the test system is T1, 2-heptyl-4(1H)-quinolone synthase PqsD (Pseudomonas aeruginosa), A0A0C7ACN7 [H258F].
T1 sequence (whole entry): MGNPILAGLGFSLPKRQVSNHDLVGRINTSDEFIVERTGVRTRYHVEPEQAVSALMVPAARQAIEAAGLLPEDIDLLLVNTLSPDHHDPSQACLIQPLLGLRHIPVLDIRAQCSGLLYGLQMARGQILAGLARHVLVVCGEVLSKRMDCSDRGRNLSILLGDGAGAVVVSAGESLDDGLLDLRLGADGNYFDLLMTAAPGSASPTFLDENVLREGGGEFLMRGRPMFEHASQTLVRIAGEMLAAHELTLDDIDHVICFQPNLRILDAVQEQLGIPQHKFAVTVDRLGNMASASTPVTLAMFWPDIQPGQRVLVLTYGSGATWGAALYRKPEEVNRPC
Kind of test: Binding affinity to Pseudomonas aeruginosa PqsD H257F mutant expressed in Escherichia coli BL21 (lambdaDE3) cells by surface plasmon resonance analysis.

Test [8] relates to T2, 2-heptyl-4(1H)-quinolone synthase PqsD (Pseudomonas aeruginosa), A0A0C7ACN7 [C113A].
T2 sequence (whole entry): T1 sequence (whole entry) with C113A, F258H
Description: Binding affinity to Pseudomonas aeruginosa PqsD C112A mutant expressed in Escherichia coli BL21 (lambdaDE3) cells by surface plasmon resonance analysis.

Test [9] concerns T3, 2-heptyl-4(1H)-quinolone synthase PqsD (Pseudomonas aeruginosa), A0A0C7ACN7 [S318F].
T3 sequence (whole entry): T1 sequence (whole entry) with F258H, S318F
Description: Binding affinity to Pseudomonas aeruginosa PqsD S317F mutant expressed in Escherichia coli BL21 (lambdaDE3) cells by surface plasmon resonance analysis.

Test [10] relates to Pseudomonas aeruginosa. Description: Binding affinity to Pseudomonas aeruginosa wild-type PqsD expressed in Escherichia coli BL21 (lambdaDE3) cells by surface plasmon resonance analysis.
For test [11], the system named is Pseudomonas aeruginosa. Description: Binding affinity to Pseudomonas aeruginosa PqsD at 20 uM incubated prior to ACoA addition by surface plasmon resonance analysis in presence of ACoA.
For test [12], the system named is Pseudomonas aeruginosa. Kind of test: Binding affinity to Pseudomonas aeruginosa PqsD at 20 uM by surface plasmon resonance analysis in presence of ACoA.
Test [13] concerns Pseudomonas aeruginosa. Kind of test: Binding affinity to Pseudomonas aeruginosa PqsD at 20 uM by surface plasmon resonance analysis in absence of ACoA.

Take `CCN(CC)S(=O)(=O)c1cccc(C(=O)Nc2ccc([N+](=O)[O-])cc2C(=O)O)c1`: in [1], the half-maximal inhibitory concentration (IC50) (commonly the concentration at which inhibition is half-maximal) is 8.9 µM.

In the case of `O=C(Nc1ccccc1C(=O)O)c1cccc(S(=O)(=O)N2CCCCC2)c1`, the IC50 in test [1] came out at 14.4 µM.

Regarding `CCN(CC)S(=O)(=O)c1cccc(C(=O)Nc2cccc(C(=O)O)c2)c1`, in the test with Pseudomonas aeruginosa [2], the inhibition (as a rule, the drop in the measured response relative to a control, in per cent) was 13%.

With `CCN(CC)S(=O)(=O)c1cccc(C(=O)Nc2cc(Cl)ccc2C(=O)O)c1`, the IC50 in test [1] was determined as 9.4 µM.

As for `O=[N+]([O-])c1ccccc1C(O)c1ccccc1` (configuration not stated), the IC50 in [1] was 3.2 µM.

For the compound `CCN(CC)S(=O)(=O)c1cc(C(=O)Nc2ccc(F)cc2C(=O)O)ccc1Br`, the 50% inhibitory concentration (IC50) in test [1] is 6.6 µM.

On to `CCN(CC)C(=O)c1cccc(C(=O)Nc2ccc(Br)cc2C(=O)O)c1`, for which the IC50 in test [1] amounted to 25.5 µM.

In the case of `CCN(CC)S(=O)(=O)c1cccc(C(=O)Nc2ccc(C(F)(F)F)cc2C(=O)O)c1`, in test [1], the IC50 was determined as 12.4 µM.

Turning to `CCCN(CCC)S(=O)(=O)c1cccc(C(=O)Nc2ccccc2C(=O)O)c1`, the concentration for half-maximal inhibition (IC50) in test [1] was 5.4 µM.

With `O=C(Nc1ccccc1C(=O)O)c1cccc(S(=O)(=O)N2CCCC2)c1`, the inhibition in the test with Pseudomonas aeruginosa [2] came out at 47%.

For the compound `CCN(CC)S(=O)(=O)c1cccc(C(=O)Nc2cccc(O)c2C(=O)O)c1`, the outcome with Pseudomonas aeruginosa [3] was Active. For the same compound, the IC50 in test [4] is 1.1 µM; in test [1] it was 1.2 µM.

For `CCN(CC)S(=O)(=O)c1cccc(C(=O)Nc2ccc(F)cc2C(=O)O)c1`, the IC50 in [1] stood at 11.4 µM.

For the compound `CCN(CC)S(=O)(=O)c1cccc(C(=O)Nc2ccc(C)cc2C(=O)O)c1`, the half-inhibitory concentration (IC50) in test [1] is 18.4 µM.

As to `NS(=O)(=O)c1cccc(C(=O)Nc2ccccc2C(=O)O)c1`, in test [1], the half-inhibitory concentration (IC50) came out at 43.6 µM.

Regarding `CN(C)S(=O)(=O)c1cccc(C(=O)Nc2ccccc2C(=O)O)c1`, in the test with Pseudomonas aeruginosa [2], the inhibition came to 35%.

Regarding `CCN(CC)S(=O)(=O)c1cccc(C(=O)Nc2ccc(C#N)cc2C(=O)O)c1`, the IC50 in [1] is 26.2 µM.

As for `CCN(CC)S(=O)(=O)c1ccc(C(=O)Nc2ccccc2C(=O)O)cc1`, the inhibition with Pseudomonas aeruginosa [2] worked out at 44%.

As for `O=C(Nc1ccccc1C(=O)O)c1cccc(S(=O)(=O)N2CCCCCC2)c1`, in test [1], the IC50 stood at 14.8 µM.

With `CCN(CC)S(=O)(=O)c1cc(C(=O)Nc2ccccc2C(=O)O)ccc1C`, in test [1], the IC50 amounted to 27.3 µM.

With `CCN(CC)S(=O)(=O)c1cccc(C(=O)Nc2cc(F)ccc2C(=O)O)c1`, the half-maximal inhibitory concentration (IC50) in test [1] was determined as 8 µM.

For `CCN(CC)S(=O)(=O)c1ccc(C(=O)Nc2ccc(Br)cc2C(=O)O)cc1`, the half-inhibitory concentration (IC50) in test [1] was 13 µM.

Turning to `CCN(CC)S(=O)(=O)c1cccc(C(=O)Nc2ccc(-c3ccc(C(=O)O)cc3)cc2C(=O)O)c1`, the IC50 amounted to 2 µM in [4] and 2.7 µM in [1].

Take `O=C(Nc1ccccc1C(=O)O)c1cccc(S(=O)(=O)N2CCOCC2)c1`: in the test with Pseudomonas aeruginosa [2], the inhibition is 16%.

Consider `CCN(CC)S(=O)(=O)c1cccc(C(=O)Nc2ccc(-c3ccc(C(N)=O)cc3)cc2C(=O)O)c1`, for which the IC50 in [1] was 1.9 µM.

With `CCN(CC)S(=O)(=O)c1cccc(C(=O)Nc2ccccc2C(N)=O)c1`, in the test with Pseudomonas aeruginosa [2], the inhibition was 21%.

Turning to `CCN(CC)S(=O)(=O)c1cccc(C(=O)Nc2ccccc2C(=O)O)c1`, the result in the test on Pseudomonas aeruginosa [3] was Active. The IC50 in test [4] turned out to be 19.4 µM; in test [1] it was 19.8 µM. The inhibition in the test on Pseudomonas aeruginosa [2] is 69%.

With `CCN(CC)S(=O)(=O)c1cccc(C(=O)Nc2cc([N+](=O)[O-])ccc2C(=O)O)c1`, in test [1], the IC50 turned out to be 6.3 µM.

Consider `CCN(CC)S(=O)(=O)c1cccc(C(=O)Nc2cccc(F)c2C(=O)O)c1`, for which the IC50 in test [1] worked out at 24.9 µM.

Take `CCN(CC)C(=O)c1cccc(C(=O)Nc2ccccc2C(=O)O)c1`: in the test with Pseudomonas aeruginosa [2], the inhibition was under 10%.

In the case of `O=C(Nc1ccccc1C(=O)O)c1ccc(-c2ccccc2)c(Oc2ccccc2)c1`, in test [1], the IC50 amounted to 6.6 µM.

`CCN(CC)S(=O)(=O)c1cccc(C(=O)Nc2ccc(-c3cccc(C(=O)O)c3)cc2C(=O)O)c1`: the IC50 in test [4] is 1.6 µM; in [1] it was 1.5 µM.

Consider `CCN(CC)S(=O)(=O)c1cccc(C(=O)Nc2cccc(Cl)c2C(=O)O)c1`, for which the IC50 in test [1] turned out to be 39 µM.

Take `CCN(Cc1ccccc1)S(=O)(=O)c1cccc(C(=O)Nc2ccccc2C(=O)O)c1`: the result in the test with Pseudomonas aeruginosa [3] was Active. The IC50 in [4] came out at 12.9 µM; in [1], 16.5 µM.

In the case of `CCc1ccc(C(=O)Nc2ccccc2C(=O)O)cc1S(=O)(=O)N(CC)CC`, the inhibition with Pseudomonas aeruginosa [2] was 39%.

Take `Cc1ccc(S(=O)(=O)c2cc(O)c3ccccc3c2O)cc1`: the concentration for half-maximal inhibition (IC50) in [4] came to 1.1 µM; in [1] it was 0.15 µM. Further, in the test with Pseudomonas aeruginosa [5], the result was inactive.

Regarding `CCN(CC)S(=O)(=O)c1cccc(C(=O)Nc2cccc(OC)c2C(=O)O)c1`, the inhibition in the test with Pseudomonas aeruginosa [2] was determined as 44%.

For `CCN(CC)S(=O)(=O)c1cccc(C(=O)Nc2ccc(-c3ccccc3)cc2C(=O)O)c1`, the Kd (commonly a measure of binding affinity in units of concentration) in [6] was 5.2 µM. Further, the result (in [7]; in test [8]; in test [9]; with Pseudomonas aeruginosa [10]; in the test on Pseudomonas aeruginosa [11]; in the test with Pseudomonas aeruginosa [12]) was Active. In addition, in the test on Pseudomonas aeruginosa [13], the result was Active. Besides, the IC50 in [4] was 4.2 µM; in test [1] it was 3 µM.

For the compound `CCN(CC)S(=O)(=O)c1cc(C(=O)Nc2ccccc2C(=O)O)ccc1Br`, the result (in test [7]; in test [8]; in [9]; in the test with Pseudomonas aeruginosa [10]) was Active. The IC50 in [1] was found to be 6.9 µM.

For `CCN(CC)S(=O)(=O)c1cccc(C(=O)Nc2ccc(Br)cc2C(=O)O)c1`, the outcome (in [7]; in [8]; in test [9]; with Pseudomonas aeruginosa [10]; in the test on Pseudomonas aeruginosa [12]; with Pseudomonas aeruginosa [13]) was Active. Further, the figures for the IC50 in [4] and in test [1] were 7 µM and 9.9 µM, respectively.

`CCN(CC)S(=O)(=O)c1cccc(C(=O)Nc2ccc(-c3cccc(C(N)=O)c3)cc2C(=O)O)c1`: in [1], the IC50 is 3.8 µM.

As for `CCN(CC)S(=O)(=O)c1cc(C(=O)Nc2ccc(Br)cc2C(=O)O)ccc1Br`, the IC50 in test [1] worked out at 3.8 µM.
